These results are taken from ChEMBL document CHEMBL1122732, “Vitamin K dependent carboxylation: synthesis and biological properties of tetrazolyl analogues of pentapeptidic substrates” (J Med Chem, 1984).

A short description of test [1]: (§1) Compound were evaluated for its binding affinity against vitamin K dependent carboxylation.
Test [2] is described as follows: as §1. This is another data set of the same source.

pKi: −log10 of the molar value.

By pKi is commonly meant the Ki on a negative log10 scale, so that one unit is a factor of ten. By Km is commonly meant the concentration of substrate that gives half-maximal velocity.

Take H-FLEEV-OH: the negative-log Ki (pKi) in test [1] was 1.70. The same measure, in the same setting: the same measure for `CC(C)C[C@H](NC(=O)[C@@H](N)Cc1ccccc1)C(=O)N[C@@H](CCc1nn[nH]n1)C(=O)N[C@@H](CCc1nn[nH]n1)C(=O)N[C@H](C(=O)O)C(C)C`: 2.51. As to `CC(C)C[C@H](NC(=O)[C@@H](N)Cc1ccccc1)C(=O)N[C@@H](CCC1N=NN=N1)C(=O)N[C@@H](CCC1N=NN=N1)C(=O)N[C@H](C(=O)O)C(C)C`, in test [2], the Km came out at 3000 µM. Moreover, the pKi in test [1] is 2.52.
